{"source": "patent US3959351A", "about": "“Haloalkylbenzoyl esters of di-lower alkylamino alkanols and quaternary lower alkyl salts thereof” (priority 1972, dated 1976)", "biological_target": "electric eel cholinesterase (Type V) (Electrophorus electricus, UniProt O42275)", "sequence (O42275 24-633)": "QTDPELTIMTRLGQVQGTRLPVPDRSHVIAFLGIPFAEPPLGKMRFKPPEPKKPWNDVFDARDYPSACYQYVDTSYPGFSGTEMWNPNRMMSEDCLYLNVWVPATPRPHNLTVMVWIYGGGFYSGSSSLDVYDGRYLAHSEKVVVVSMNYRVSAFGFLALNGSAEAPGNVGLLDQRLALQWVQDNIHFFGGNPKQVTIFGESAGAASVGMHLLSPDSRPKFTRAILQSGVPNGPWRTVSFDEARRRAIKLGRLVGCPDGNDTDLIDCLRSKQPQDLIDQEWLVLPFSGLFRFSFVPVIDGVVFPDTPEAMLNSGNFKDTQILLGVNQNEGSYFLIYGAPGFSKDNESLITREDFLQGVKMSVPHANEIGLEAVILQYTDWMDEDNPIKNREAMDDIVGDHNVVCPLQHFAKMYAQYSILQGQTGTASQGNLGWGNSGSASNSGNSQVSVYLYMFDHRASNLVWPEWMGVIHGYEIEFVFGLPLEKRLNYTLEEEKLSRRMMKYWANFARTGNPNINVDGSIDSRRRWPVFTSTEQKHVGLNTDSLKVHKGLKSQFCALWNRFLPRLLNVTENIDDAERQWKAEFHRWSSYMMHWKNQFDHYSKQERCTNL", "assay": "Inhibition of electric eel cholinesterase (Type V) by substituted benzoyl cholines (method of Rappaport et al.)", "type": "biochemical", "conditions": "incubated with enzyme at room temperature (22°) for 40 minutes", "procedure": "As stated heretofore, the compounds of the present invention when tested for inhibition of eel cholinesterase show good activity at rather low concentrations. Inhibition of cholinesterase activity of generally recognized as having positive correlation which insecticidal activity.\nINHIBITION OF ELECTRIC EEL CHOLINESTERASE (TYPE V)\nBY SUBSTITUTED BENZOYL CHOLINES\nActivity Measurement Method:\n*Reagent incubated with enzyme at room temperature (22°) for 40", "key": {"[1]": {"conditions": "40 min, Bromomethyl- reagent type, concentration 10^-^4 M"}, "[2]": {"conditions": "Bromomethyl- reagent type, concentration 10^-^6 M"}, "[3]": {"conditions": "40 min, Formyl- reagent type, concentration 10^-^4 M"}, "[4]": {"conditions": "Formyl- reagent type, concentration 10^-^3 M"}, "[5]": {"conditions": "Bromomethyl- reagent type, concentration 10^-^4 M"}, "[6]": {"conditions": "Formyl- reagent type, concentration 10^-^4 M"}}}
{"compound": "C[N+](C)(C)CCOC(=O)c1cccc(CBr)c1CBr.[I-]", "note": "[2,3 Bromomethyl-, 2,3-di(bromomethyl)benzoyl choline iodide]", "values": [{"measurement": "inhibition at 100 µM", "setting": "[1]", "result": 40, "unit": "%"}, {"measurement": "INHIBITION", "setting": "[2]", "result": "None"}]}
{"compound": "C[N+](C)(C)CCOC(=O)c1cccc(C=O)c1C=O.[I-]", "note": "[2,3 Formyl-, 2,3-diformylbenzoyl choline iodide]", "values": [{"measurement": "inhibition at 100 µM", "setting": "[3]", "result": 50, "unit": "%"}, {"measurement": "INHIBITION", "setting": "[4]", "result": "Complete"}]}
{"compound": "C[N+](C)(C)CCOC(=O)c1ccc(CBr)cc1CBr.[I-]", "note": "[2,4 Bromomethyl-, 2,4-di(bromomethyl)benzoyl choline iodide]", "values": [{"measurement": "INHIBITION", "setting": "[5]", "result": "Complete"}, {"measurement": "INHIBITION", "setting": "[2]", "result": "None"}]}
{"compound": "C[N+](C)(C)CCOC(=O)c1ccc(C=O)cc1C=O.[I-]", "note": "[2,4 Formyl-, 2,4-diformylbenzoyl choline iodide]", "values": [{"measurement": "inhibition at 100 µM", "setting": "[3]", "result": 50, "unit": "%"}, {"measurement": "INHIBITION", "setting": "[4]", "result": "Complete"}]}
{"compound": "C[N+](C)(C)CCOC(=O)c1cc(CBr)ccc1CBr.[I-]", "note": "[2,5 Bromomethyl-, 2,5-di(bromomethyl)benzoyl choline iodide]", "values": [{"measurement": "inhibition at 100 µM", "setting": "[1]", "result": 80, "unit": "%"}, {"measurement": "INHIBITION", "setting": "[2]", "result": "None"}]}
{"compound": "C[N+](C)(C)CCOC(=O)c1cc(C=O)ccc1C=O.[I-]", "note": "[2,5 Formyl-, 2,5-diformylbenzoyl choline iodide]", "values": [{"measurement": "inhibition at 100 µM", "setting": "[3]", "result": 50, "unit": "%"}, {"measurement": "INHIBITION", "setting": "[4]", "result": "Complete"}]}
{"compound": "C[N+](C)(C)CCOC(=O)c1ccc(CBr)c(CBr)c1", "note": "[3,4 Bromomethyl-, 3,4-di(bromomethyl)benzoyl choline iodide]", "values": [{"measurement": "inhibition at 100 µM", "setting": "[1]", "result": 90, "unit": "%"}, {"measurement": "inhibition at 1 µM", "setting": "40 min, Bromomethyl- reagent type, concentration 10^-^6 M", "result": 30, "unit": "%"}]}
{"compound": "C[N+](C)(C)CCOC(=O)c1ccc(C=O)c(C=O)c1.[I-]", "note": "[3,4 Formyl-, 3,4-diformylbenzoyl choline iodide]", "values": [{"measurement": "inhibition at 100 µM", "setting": "[3]", "result": 25, "unit": "%"}, {"measurement": "INHIBITION", "setting": "[4]", "result": "Complete"}]}
{"compound": "C[N+](C)(C)CCOC(=O)c1cc(CBr)cc(CBr)c1.[I-]", "note": "[3,5 Bromomethyl-, 3,5-di(bromomethyl)benzoyl choline iodide]", "values": [{"measurement": "inhibition at 100 µM", "setting": "[1]", "result": 90, "unit": "%"}, {"measurement": "INHIBITION", "setting": "[2]", "result": "None"}]}
{"compound": "C[N+](C)(C)CCOC(=O)c1cc(C=O)cc(C=O)c1.[I-]", "note": "[3,5 Formyl-, 3,5-diformylbenzoyl choline iodide]", "values": [{"measurement": "INHIBITION", "setting": "[4]", "result": "Complete"}, {"measurement": "INHIBITION", "setting": "[6]", "result": "Complete"}]}
{"compound": "C[N+](C)(C)CCOC(=O)c1cccc(CBr)c1.[I-]", "note": "[meta Bromomethyl-, m-bromomethyl benzoyl choline iodide]", "values": [{"measurement": "INHIBITION", "setting": "[5]", "result": "None"}, {"measurement": "INHIBITION", "setting": "[2]", "result": "None"}]}
{"compound": "C[N+](C)(C)CCOC(=O)c1cccc(C=O)c1.[I-]", "note": "[meta Formyl-, m-formylbenzoyl choline iodide]", "values": [{"measurement": "inhibition at 1000 µM", "setting": "40 min, Formyl- reagent type, concentration 10^-^3 M", "result": 60, "unit": "%"}, {"measurement": "INHIBITION", "setting": "[6]", "result": "None"}]}
{"compound": "C[N+](C)(C)CCOC(=O)c1ccccc1CBr.[I-]", "note": "[ortho Bromomethyl-, o-bromomethyl benzoyl choline iodide]", "values": [{"measurement": "INHIBITION", "setting": "[5]", "result": "None"}, {"measurement": "INHIBITION", "setting": "[2]", "result": "None"}]}
{"compound": "C[N+](C)(C)CCOC(=O)c1ccccc1C=O.[I-]", "note": "[ortho Formyl-, o-formylbenzoyl choline iodide]", "values": [{"measurement": "INHIBITION", "setting": "[4]", "result": "None"}, {"measurement": "INHIBITION", "setting": "[6]", "result": "None"}]}
{"compound": "C[N+](C)(C)CCOC(=O)c1ccc(CBr)cc1.[I-]", "note": "[para Bromomethyl-, para-bromomethyl benzoyl choline iodide]", "values": [{"measurement": "INHIBITION", "setting": "[5]", "result": "Complete"}, {"measurement": "INHIBITION", "setting": "[2]", "result": "None"}]}
{"compound": "C[N+](C)(C)CCOC(=O)c1ccc(C=O)cc1.[Br-]", "note": "[para Formyl-, p-Formyl benzoyl choline bromide]", "values": [{"measurement": "INHIBITION", "setting": "[4]", "result": "Complete"}, {"measurement": "INHIBITION", "setting": "[6]", "result": "None"}]}
